Data as given in ChEMBL document CHEMBL1121705, “Synthesis and angiotensin-converting enzyme inhibitory activity of 3-(Mercaptomethyl)-2-oxo-1-pyrrolidineacetic acids and 3-(Mercaptomethyl)-2-oxo-1-piperidineacetic acids” (J Med Chem, 1981).

Biological target: Angiotensin-converting enzyme (Homo sapiens, UniProt P12821)
Assay: Concentration required for 50% inhibition of Angiotensin I converting enzyme; call rule not given here
Type: protein assay, Cavia porcellus

Chain of Angiotensin-converting enzyme (P12821 whole entry): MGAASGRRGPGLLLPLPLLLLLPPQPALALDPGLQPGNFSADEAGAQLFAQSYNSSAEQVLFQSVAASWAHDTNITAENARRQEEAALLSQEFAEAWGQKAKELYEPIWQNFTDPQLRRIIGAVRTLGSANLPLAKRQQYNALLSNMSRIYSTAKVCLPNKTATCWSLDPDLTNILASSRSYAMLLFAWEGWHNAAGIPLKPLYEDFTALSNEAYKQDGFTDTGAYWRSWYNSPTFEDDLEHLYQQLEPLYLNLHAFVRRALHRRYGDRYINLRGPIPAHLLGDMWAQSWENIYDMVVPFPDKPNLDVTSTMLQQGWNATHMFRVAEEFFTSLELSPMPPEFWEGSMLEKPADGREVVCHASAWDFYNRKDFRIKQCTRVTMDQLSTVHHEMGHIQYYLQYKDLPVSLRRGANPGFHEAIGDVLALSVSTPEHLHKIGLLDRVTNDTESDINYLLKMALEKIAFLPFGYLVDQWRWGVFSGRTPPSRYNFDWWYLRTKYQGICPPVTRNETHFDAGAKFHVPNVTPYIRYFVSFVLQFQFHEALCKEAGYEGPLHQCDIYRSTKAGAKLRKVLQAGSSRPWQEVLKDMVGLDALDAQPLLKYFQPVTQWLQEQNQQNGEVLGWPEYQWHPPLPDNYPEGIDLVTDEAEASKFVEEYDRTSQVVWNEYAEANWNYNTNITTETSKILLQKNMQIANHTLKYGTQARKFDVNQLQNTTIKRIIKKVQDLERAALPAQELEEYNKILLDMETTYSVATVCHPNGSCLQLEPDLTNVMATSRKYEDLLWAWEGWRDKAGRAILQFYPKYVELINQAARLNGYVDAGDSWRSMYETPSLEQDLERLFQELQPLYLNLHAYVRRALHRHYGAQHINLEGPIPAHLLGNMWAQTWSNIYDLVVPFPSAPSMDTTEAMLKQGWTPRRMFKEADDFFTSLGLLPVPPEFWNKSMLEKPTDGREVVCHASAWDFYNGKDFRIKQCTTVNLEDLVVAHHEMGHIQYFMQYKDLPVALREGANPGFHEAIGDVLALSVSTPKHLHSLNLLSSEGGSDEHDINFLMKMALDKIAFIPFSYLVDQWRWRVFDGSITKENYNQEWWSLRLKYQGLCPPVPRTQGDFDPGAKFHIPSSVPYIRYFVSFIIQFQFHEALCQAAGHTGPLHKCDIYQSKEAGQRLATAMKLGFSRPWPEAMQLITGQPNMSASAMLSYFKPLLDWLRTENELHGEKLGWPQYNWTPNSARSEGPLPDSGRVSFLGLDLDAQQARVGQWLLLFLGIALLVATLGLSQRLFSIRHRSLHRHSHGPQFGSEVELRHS

CC(=O)SCC1CCCN(CC(N)=O)C1=O (stereo unspecified)
IC50: Not Active
